# System: T1, AeHGO
# T1 construct: full-length, N-terminal His-tag (pCold II), E. coli Transetta, IMAC purified, tag cut not mentioned; cloning primers encode N-terminus MGNSAE and C-terminus NTLKTA
# Assay: UPLC product assay, Michaelis-Menten fit
# Format: biochemical, Arnebia euchroma
# Settings: basic assay 50 mM MES-Tris pH 7.5, 37°C
# Text: UPLC product assay, Michaelis-Menten fit on AeHGO
# [1] = oxidation, 500 µM NADP+, apparent
Compound,Km [1] [µM],other results
NC(=O)c1ccc[n+]([C@@H]2O[C@H](COP(=O)(O)OP(=O)(O)OC[C@H]3O[C@@H](n4cnc5c(N)ncnc54)[C@H](OP(=O)(O)O)[C@@H]3O)[C@@H](O)[C@H]2O)c1 [NADP^+],,"Km (oxidation, 500 µM (Z)-3''-OH-GHQ): 17.8 ± 5.62 µM"
"CC(C)=CCC/C(=C/Cc1cc(O)ccc1O)CO [compound 1, (Z)-3’’-OH-GHQ]",24.7 ± 5.18,
"CC(C)=CCC/C(=C\Cc1cc(O)ccc1O)CO [compound 2, (E)-3’’-OH-GHQ]",18.7 ± 5.39,
"CC(C)=CCC/C(C=O)=C\Cc1cc(O)ccc1O [compound 3, (E)-3’’-oxo-GHQ]",,"Km (reduction, 500 µM NADPH, apparent, fit at low substrate concentrations because of substrate inhibition): 9.96 ± 2.87 µM"

# Source: article PMC10167036, “The discovery and characterization of AeHGO in the branching route from shikonin biosynthesis to shikonofuran in Arnebia euchroma” (Frontiers in Plant Science, 2023)
